Experimental data published in patent US7892569B2, “Methods of altering an immune response induced by CpG oligodeoxynucleotides” (The United States of America as represented by the …, priority 2005, dated 2011).

Columns and labels:
pDC [1] = assay: Binding of FITC conjugated CpG ODN to purified pDC in the presence of scavenger receptor ligands (flow cytometry); format: cell-based, human; conditions: 50 μg/ml inhibitor, preincubated 20 min at 4° C., mean ± S.D
Procedure: (§1) FIGS. 3A-3D are bar graphs and plots showing the effect of scavenger receptor ligands on the binding and activity of CpG ODN. FIG. 3A is a bar graph of the results obtained when purified pDC were preincubated (20 minutes at 4° C.) with medium or with 50 μg/ml each of inhibitors followed by addition of 1 μM FITC conjugated ODN. Mean fluorescence intensity representing binding of FITC-ODN was assessed using flow cytometry. Results represent the mean±S.D of three independent experiments. FIG. 3B is a bar graph showing D ODN induced IFN-α from peripheral blood mononuclear cells (PBMC). Open bars: medium; dotted bars: chondroitin sulfate; right-striped bars: fucoidan; left-striped bars: dextran sulfate Production of IFN-α from PBMC (in the absence or presence of 50 μg/ml inhibitors) was determined by ELISA from 24 hour culture supernatants. FIG. 3C is a plot showing K ODN induced TNF-α production in pDC (in the absence or presence of 50 μg/ml dextran sulfate). TNF-α production was determined using intracytoplasmic cytokine staining (representative plots of three independent experiments). FIG. 3D is a plot showing the results obtained when purified pDC were incubated with 1 μM each of K or with 3 μM D ODN in the absence or presence of 50 μg/ml dextran sulfate. Upregulation of HLA-DR/CD54 was determined 24 hours later using flow cytometry.
To evaluate whether a scavenger receptor (SR) played a role in D ODN uptake and signaling, the ability of dextran sulfate and fucoidan (classical scavenger receptor ligands) to block the binding of CpG ODN to pDC was evaluated (Table 2 and Supplementary FIG. 3A).

[2] = Cytokine induction by D ODN (statement in the description); format: cell-based; conditions: no test described
PBMC [3] = assay: CpG ODN induced cytokine secretion (TNF-α, IFN-α) in the absence or presence of scavenger receptor ligands; format: cell-based, human; conditions: 50 μg/ml inhibitor
Procedure: as §1, with “FIG. 3A is a bar graph of the results obtained when purified pDC were preincubated (20 minutes at 4° C.) with medium or with 50 μg/ml each of inhibitors followed by addition of 1 μM FITC conjugated ODN.” left out, “FIG. 3B is a bar graph showing D ODN induced IFN-α from peripheral blood mononuclear cells (PBMC).” left out, “FIG. 3C is a plot showing K ODN induced TNF-α production in pDC (in the absence or presence of 50 μg/ml dextran sulfate).” left out

pDC [4] = assay: Upregulation of HLA-DR/CD54 on purified pDC by CpG ODN in the absence or presence of dextran sulfate; format: cell-based, human; conditions: 24 hours, 50 μg/ml inhibitor
Procedure: as §1, with “FIG. 3A is a bar graph of the results obtained when purified pDC were preincubated (20 minutes at 4° C.) with medium or with 50 μg/ml each of inhibitors followed by addition of 1 μM FITC conjugated ODN.” left out, “FIG. 3B is a bar graph showing D ODN induced IFN-α from peripheral blood mononuclear cells (PBMC).” left out, “FIG. 3C is a plot showing K ODN induced TNF-α production in pDC (in the absence or presence of 50 μg/ml dextran sulfate).” left out

pDC [5] = assay: CXCL16 expression on pDC after preincubation of PBMC with GM-6001; format: cell-based, human; conditions: 50 μM, 30 minutes preincubation of PBMC
Procedure: (§2) FIGS. 7A-7B are a plot and a bar graph showing the metalloproteinase inhibitor GM-6001 enhances CXCL16 expression and subsequent cytokine production induced by D ODN. PBMC were preincubated in the absence (open bars) or presence (filled bars) of GM-6001 (50 μM) for 30 minutes, washed and then stained for CXCL16 expression on pDC (see FIG. 7A) or stimulated with 1 μM of K or 3 μM D ODN for 24 hours (FIG. 7B). Cytokine production (IL-6 for K ODN and IFN-α D ODN) was assessed from culture supernatants using ELISA. Individual results from six different PBMC are shown.
(§3) CXCL16 expressed on the cell surface is cleaved by the metalloproteinase ADAM-10 (Abel et al., J Immunol. 2004 172(10):6362-72, 2004; Gough et al., J Immunol. 172(6):3678-85, 2004). […] Based on the observation that pDC expressing high levels of CXCL16 were more responsive to D ODN stimulation, human PBMC were incubated with GM6001 followed by K or D ODNs.

PBMC [6] = assay: Cytokine production of PBMC preincubated with GM-6001 and stimulated with K or D ODN (ELISA); format: cell-based, human; conditions: 50 μM preincubation, 24 hours
Procedure: as §2, §3

[7] = D ODN: 1 μM FITC conjugated ODN

chondroitin sulfate
% inhibition of binding to pDC (pDC [1]; [7]): not

DV113: D ODN GGTGCATCGATACAGGGGGG (SEQ ID NO: 6) (DNA, backbone not given here; underlined bases phosphodiester, further chemistry not fully specified)
induction of IFN-γ and IFN-α [2]: high levels

Dextran sulfate
% inhibition of binding to pDC (pDC [1]; [7]): > 50%
% inhibition of binding to pDC (pDC [1]; D ODN: 1 μM FITC conjugated ODN, listed as Dextran Sulfate): 65.02 ± 5.8%
% inhibition of binding to pDC (pDC [1]; K ODN: 1 μM FITC conjugated ODN): not
% inhibition of binding to pDC (pDC [1]; K ODN: 1 μM FITC conjugated ODN, listed as Dextran Sulfate): 23.2 ± 8.8%
% inhibition of cytokine secretion (PBMC [3]; D ODN induced IFN-α production from PBMC, ELISA): 90.3 ± 8.4%
% inhibition of cytokine secretion (PBMC [3]; K ODN induced TNF-α production, intracytoplasmic staining): 5.8 ± 2.3%
% inhibition in the generation of HLA-DR/CD54 double positive cells (pDC [4]; 1 μM K ODN): 0.8 ± 1.8%
% inhibition in the generation of HLA-DR/CD54 double positive cells (pDC [4]; 3 μM D ODN): 92.3 ± 5.8%

CNC(=O)[C@H](Cc1c[nH]c2ccccc12)NC(=O)[C@@H](CC(=O)NO)CC(C)C [GM6001]
expression of CXCL16 on pDC (pDC [5]): increased
effect on cells stimulated with K ODN (IL-6 production) (PBMC [6]; 1 μM K ODN): no effect
increase of D ODN responsiveness of pDCs (IFN-α production) (PBMC [6]; 3 μM D ODN): 2 fold
